Organism: Rattus norvegicus
Assay: Open TG-GATES - Regimen: Daily Repeat
Type: toxicity, organism-based, Sprague-Dawley
Design: regimen Daily Repeat, gender Male, age 6 weeks
Conditions: in vivo, po, route gavage; for gamma-GTP / ALP / ALT / AST / CRE / Ca / Cl / DBIL / GLC / IP / K / LDH / Na / PL / RALB / TBIL / TC / TG / TP / BUN: tissue Plasma; for APTT / Bas / Eos / Fbg / Hb / Lym / MCH / MCHC / MCV / Mono / Plat / RBC / Ret / WBC / Ht: tissue Blood; for KIDNEY_L / KIDNEY_R / KIDNEY_TOTAL: tissue Kidney
[1] = 75 mg/kg, 72 h, dose level Middle, time 3 day
[2] = 75 mg/kg, […], dose level Middle, time 7 day
[3] = 75 mg/kg, […], dose level Middle, time 14 day
[4] = 75 mg/kg, […], dose level Middle, time 28 day
[5] = 250 mg/kg, 72 h, dose level High, time 3 day
[6] = 250 mg/kg, […], dose level High, time 7 day
[7] = 250 mg/kg, […], dose level High, time 14 day
[8] = 250 mg/kg, […], dose level High, time 28 day

Q: What does the source list for `O=C1CN(/N=C/c2ccc(-c3ccc([N+](=O)[O-])cc3)o2)C(O)=N1` [DANTROLENE]?
A: gamma-GTP (25 mg/kg, […], dose level Low, time 28 day): 1.6 IU/L; TERMINAL_BW [1]: 213.7 g; APTT [1]: 19.1 s; Bas [1]: 0%; Eos [1]: 1%; Fbg [1]: 223.4 mg/dL; Hb [1]: 14.1 g/dL; Lym [1]: 81.8%; MCH [1]: 21.6 pg; MCHC [1]: 33.8%; MCV [1]: 63.8 fL; Mono [1]: 7%; Plat [1]: 126.6 x10_4/uL; RBC [1]: 656.2 x10_4/ul; Ret [1]: 2.9%; WBC [1]: 97.1 x10_2/uL; KIDNEY_L [1]: 1 g; KIDNEY_R [1]: 1 g; KIDNEY_TOTAL [1]: 2 g; ALP [1]: 615 IU/L; ALT [1]: 30.2 IU/L; AST [1]: 63.2 IU/L; CRE [1]: 0.6 mg/dL; Ca [1]: 10.8 mg/dL; Cl [1]: 105.2 meq/L; DBIL [1]: 0.01 mg/dL; GLC [1]: 188 mg/dL; IP [1]: 6 mg/dL; K [1]: 4.2 meq/L; LDH [1]: 107.2 IU/L; Na [1]: 140.6 meq/L; PL [1]: 142 mg/dL; RALB [1]: 3.9 g/dL; TBIL [1]: 0.3 mg/dL; TC [1]: 75.4 mg/dL; TG [1]: 52.4 mg/dL; TP [1]: 5.8 g/dL; gamma-GTP [1]: 1 IU/L; TERMINAL_BW [2]: 242.5 g; TERMINAL_BW [3]: 289.9 g; TERMINAL_BW [4]: 346.6 g; APTT [2]: 17.1 s; Bas [2]: 0%; Eos [2]: 1%; Fbg [2]: 207.4 mg/dL; Hb [2]: 14.3 g/dL; Lym [2]: 77.8%; MCH [2]: 21.1 pg; MCHC [2]: 33.5%; MCV [2]: 63 fL; Mono [2]: 8.4%; RBC [2]: 679 x10_4/ul; Ret [2]: 5.6%; WBC [2]: 121.9 x10_2/uL; APTT [3]: 16.7 s; Bas [3]: 0%; Eos [3]: 0.6%; Fbg [3]: 222.4 mg/dL; Hb [3]: 15.3 g/dL; Lym [3]: 83.6%; MCH [3]: 21 pg; MCHC [3]: 34%; MCV [3]: 61.8 fL; Mono [3]: 5.8%; Plat [3]: 114.6 x10_4/uL; RBC [3]: 727.2 x10_4/ul; Ret [3]: 4.7%; WBC [3]: 127.2 x10_2/uL; APTT [4]: 16.8 s; Bas [4]: 0%; Eos [4]: 1.2%; Fbg [4]: 231.8 mg/dL; Hb [4]: 15.7 g/dL; Ht [4]: 46.3%; Lym [4]: 79.4%; MCH [4]: 19.5 pg; MCHC [4]: 33.9%; MCV [4]: 57.5 fL; Mono [4]: 5.4%; Plat [4]: 118.7 x10_4/uL; RBC [4]: 806.6 x10_4/ul; Ret [4]: 4.4%; KIDNEY_L [2]: 1.1 g; KIDNEY_R [2]: 1.1 g; KIDNEY_TOTAL [2]: 2.1 g; KIDNEY_L [3]: 1.2 g; KIDNEY_R [3]: 1.2 g; KIDNEY_TOTAL [3]: 2.4 g; KIDNEY_L [4]: 1.4 g; KIDNEY_R [4]: 1.4 g; KIDNEY_TOTAL [4]: 2.8 g; ALP [2]: 857.6 IU/L; ALT [2]: 34 IU/L; AST [2]: 61.2 IU/L; BUN [2]: 18.2 mg/dL; CRE [2]: 0.5 mg/dL; Ca [2]: 10.8 mg/dL; Cl [2]: 108.6 meq/L; DBIL [2]: 0.014 mg/dL; GLC [2]: 185.6 mg/dL; IP [2]: 6.9 mg/dL; K [2]: 4.8 meq/L; LDH [2]: 107.4 IU/L; Na [2]: 139.6 meq/L; PL [2]: 139.4 mg/dL; RALB [2]: 3.8 g/dL; TBIL [2]: 0.4 mg/dL; TC [2]: 65.6 mg/dL; TG [2]: 74.4 mg/dL; TP [2]: 5.7 g/dL; gamma-GTP [2]: 1.4 IU/L; ALP [3]: 636.8 IU/L; ALT [3]: 30.6 IU/L; AST [3]: 57.4 IU/L; BUN [3]: 19.6 mg/dL; CRE [3]: 0.6 mg/dL; Ca [3]: 10.8 mg/dL; Cl [3]: 105.4 meq/L; DBIL [3]: 0.016 mg/dL; GLC [3]: 186.8 mg/dL; IP [3]: 6.5 mg/dL; K [3]: 3.9 meq/L; LDH [3]: 101.8 IU/L; Na [3]: 141 meq/L; PL [3]: 160.6 mg/dL; RALB [3]: 3.8 g/dL; TBIL [3]: 0.4 mg/dL; TC [3]: 66.4 mg/dL; TG [3]: 130.4 mg/dL; TP [3]: 5.9 g/dL; gamma-GTP [3]: 0.6 IU/L; ALP [4]: 509.8 IU/L; ALT [4]: 31.8 IU/L; AST [4]: 53 IU/L; BUN [4]: 18.8 mg/dL; CRE [4]: 0.5 mg/dL; Ca [4]: 10.7 mg/dL; Cl [4]: 106.4 meq/L; DBIL [4]: 0.05 mg/dL; GLC [4]: 179.8 mg/dL; IP [4]: 6.2 mg/dL; K [4]: 4.2 meq/L; LDH [4]: 122.4 IU/L; Na [4]: 140 meq/L; PL [4]: 169.6 mg/dL; RALB [4]: 4 g/dL; TBIL [4]: 0.2 mg/dL; TC [4]: 72.4 mg/dL; TG [4]: 139.8 mg/dL; TP [4]: 6.2 g/dL; gamma-GTP [4]: 1.2 IU/L; TERMINAL_BW [5]: 193.8 g; APTT [5]: 18.5 s; Bas [5]: 0%; Eos [5]: 1%; Fbg [5]: 226.8 mg/dL; Hb [5]: 14.7 g/dL; Lym [5]: 85%; MCH [5]: 21.1 pg; MCHC [5]: 33.3%; MCV [5]: 63.2 fL; Mono [5]: 6.6%; Plat [5]: 124.6 x10_4/uL; RBC [5]: 696 x10_4/ul; Ret [5]: 2.8%; WBC [5]: 69 x10_2/uL; KIDNEY_L [5]: 1 g; KIDNEY_R [5]: 1 g; KIDNEY_TOTAL [5]: 2 g; ALP [5]: 630.6 IU/L; ALT [5]: 29.6 IU/L; AST [5]: 52.4 IU/L; BUN [5]: 17.2 mg/dL; CRE [5]: 0.5 mg/dL; Ca [5]: 10.4 mg/dL; Cl [5]: 103.8 meq/L; DBIL [5]: 0.018 mg/dL; GLC [5]: 174 mg/dL; IP [5]: 8.2 mg/dL; K [5]: 4.4 meq/L; LDH [5]: 99.6 IU/L; Na [5]: 139.2 meq/L; PL [5]: 121.2 mg/dL; RALB [5]: 3.7 g/dL; TBIL [5]: 0.4 mg/dL; TC [5]: 62.8 mg/dL; TG [5]: 24 mg/dL; TP [5]: 5.5 g/dL; gamma-GTP [5]: 1 IU/L; TERMINAL_BW [6]: 231.2 g; TERMINAL_BW [7]: 269 g; TERMINAL_BW [8]: 326.2 g; APTT [6]: 18.1 s; Bas [6]: 0%; Eos [6]: 0.8%; Fbg [6]: 233 mg/dL; Hb [6]: 14.4 g/dL; Lym [6]: 81.4%; MCH [6]: 21.2 pg; MCHC [6]: 33.5%; MCV [6]: 63.3 fL; Mono [6]: 6%; Plat [6]: 108.9 x10_4/uL; RBC [6]: 680.2 x10_4/ul; Ret [6]: 5.8%; WBC [6]: 128.7 x10_2/uL; APTT [7]: 19.3 s; Bas [7]: 0%; Eos [7]: 0.6%; Fbg [7]: 233.6 mg/dL; Hb [7]: 15 g/dL; Lym [7]: 82.2%; MCH [7]: 20.1 pg; MCHC [7]: 33.6%; MCV [7]: 59.7 fL; Mono [7]: 6.4%; Plat [7]: 119.9 x10_4/uL; RBC [7]: 750.6 x10_4/ul; Ret [7]: 5.6%; WBC [7]: 115.6 x10_2/uL; APTT [8]: 18.4 s; Bas [8]: 0%; Eos [8]: 1%; Fbg [8]: 288.6 mg/dL; Hb [8]: 15.3 g/dL; Ht [8]: 45%; Lym [8]: 80.4%; MCH [8]: 19.3 pg; MCHC [8]: 33.9%; MCV [8]: 56.9 fL; Mono [8]: 6.4%; Plat [8]: 134.2 x10_4/uL; RBC [8]: 791.2 x10_4/ul; Ret [8]: 5.2%; WBC [8]: 109.3 x10_2/uL; KIDNEY_L [6]: 1.1 g; KIDNEY_R [6]: 1.1 g; KIDNEY_TOTAL [6]: 2.2 g; KIDNEY_L [7]: 1.2 g; KIDNEY_R [7]: 1.2 g; KIDNEY_TOTAL [7]: 2.4 g; KIDNEY_L [8]: 1.7 g; KIDNEY_R [8]: 1.7 g; KIDNEY_TOTAL [8]: 3.3 g; ALP [6]: 838.2 IU/L; ALT [6]: 31.4 IU/L; AST [6]: 51.6 IU/L; BUN [6]: 16 mg/dL; CRE [6]: 0.6 mg/dL; Ca [6]: 10.8 mg/dL; Cl [6]: 107.2 meq/L; DBIL [6]: 0.01 mg/dL; GLC [6]: 183.8 mg/dL; IP [6]: 7.4 mg/dL; K [6]: 4.7 meq/L; LDH [6]: 102.6 IU/L; Na [6]: 140.2 meq/L; PL [6]: 160.2 mg/dL; RALB [6]: 3.6 g/dL; TBIL [6]: 0.4 mg/dL; TC [6]: 75.2 mg/dL; TG [6]: 98.4 mg/dL; TP [6]: 5.6 g/dL; gamma-GTP [6]: 1.4 IU/L; ALP [7]: 701.4 IU/L; ALT [7]: 26.4 IU/L; AST [7]: 55.8 IU/L; BUN [7]: 17.6 mg/dL; CRE [7]: 0.5 mg/dL; Ca [7]: 10.8 mg/dL; Cl [7]: 104.4 meq/L; DBIL [7]: 0.042 mg/dL; GLC [7]: 172 mg/dL; IP [7]: 7.9 mg/dL; K [7]: 4.2 meq/L; LDH [7]: 92 IU/L; Na [7]: 141.4 meq/L; PL [7]: 152.6 mg/dL; RALB [7]: 3.9 g/dL; TBIL [7]: 0.4 mg/dL; TC [7]: 64.4 mg/dL; TG [7]: 88 mg/dL; TP [7]: 5.8 g/dL; gamma-GTP [7]: 1.2 IU/L; ALP [8]: 453.2 IU/L; ALT [8]: 24.6 IU/L; AST [8]: 35.8 IU/L; BUN [8]: 24.8 mg/dL; CRE [8]: 0.7 mg/dL; Ca [8]: 10.9 mg/dL; Cl [8]: 106.6 meq/L; DBIL [8]: 0.04 mg/dL; GLC [8]: 175.6 mg/dL; IP [8]: 7.3 mg/dL; K [8]: 4.3 meq/L; LDH [8]: 96.2 IU/L; Na [8]: 141.2 meq/L; PL [8]: 174.6 mg/dL; RALB [8]: 3.9 g/dL; TBIL [8]: 0.3 mg/dL; TC [8]: 70.6 mg/dL; TG [8]: 152.2 mg/dL; TP [8]: 6.1 g/dL; gamma-GTP [8]: 2.4 IU/L
